# Entries after “also recorded” stand apart in the source; their conditions may differ.
# Columns and labels:
# [1] = biological target: β3-AR (Homo sapiens, UniProt P13945); details: cited from earlier work; for affinity and potency at β3-AR: selective agonists; for agonist activity at β3-AR: β1- and β2-AR antagonists
# [2] = system: C57BL6 mice; assay: Splinted wound healing model in STZ-diabetic male mice; type: in vivo, mouse
# Method: 8-week-old C57BL6 mice were purchased from Animal Resources Centre (Murdoch, WA) and acclimatised to the Kearns Facility over a 1-week period. Mice were group housed (5/cage) within a Physical Containment Level 2 laboratory and were allowed food and water ad libitum. After acclimatisation, 60 mice were weighed daily and given five consecutive daily intraperitoneal injections of Streptozotocin (STZ) solution (55 mg/kg/day) dissolved in sodium citrate (0.1 M) using a standard insulin needle (30 gauge). After the final injection, mice were weighed and blood glucose level (BGL) measured weekly by pricking the most distal point on the tail with a needle to obtain a blood drop, used with an AccuCheck BGL monitor. Mice became become diabetic over 4 weeks post-STZ, as confirmed with a consistent BGL of 15 mmol/L and if greater than 10% weight loss was observed, insulin was delivered via intraperitoneal injection (1 IU in saline). 4 mice were excluded due to severe weight loss during diabetes induction that exceeded ethical protocols. […] Wounds were measured daily for 12 days by removing opsite covering and using digital callipers to measure wound diameter across 3 axes which were averaged and used to calculate circular wound area. […] As such, wound data from 2 mice in topical group were not recorded following day 8 due to splint detachment. […]
# [3] = system: diabetic HMVECs; assay: Scratch migration assay in diabetic HMVECs with Mirabegron; type: cell-based, human; details: 85 nM, 4.5 hours, vs control
# Method: (§1) For assessing the effect of Mirabegron on cell migration: Human umbilical vein endothelial cells (HUVECs; Lonza, C2519AS) were cultured in Endothelial Cell Growth Media containing 2% fetal bovine serum (EGM2) (Lonza, CC-3162) at standard conditions of 37° C. and 5% C02 (SC). Human dermal microvascular diabetic and non-diabetic endothelial cells (db-HMVECs and HMVECs: Lonza, CC2930 and CC2543 respectively) were cultured in Microvascular Endothelial Growth Media containing 2% fetal bovine serum (FBS) (EGM-2MV) (Lonza, CC-3202) at ST. Cells were between passage 4 and 7 when used.
# To investigate the potential for Mirabegron to improve migration by reversing oxidative stress, diabetic and non-diabetic HMVECs were used in a scratch migration assay. 85 nM of Mirabegron was used with a control on both cell types.
# [4] = Topical lipogel on explanted skin, DESI-Mass spec detection; type: in vitro ADME, mouse; details: lipogel applied to freshly explanted skin for 5.5 hrs
# Description: A lipogel comprising the β3AR agonist Mirabegron was applied to freshly explanted skin for 5.5 hrs. Skin was then snap frozen in liquid nitrogen and cryosectioned at 40 μum thickness.
# DESI-Mass spec was then used to scan the tissue at 30 μm resolution. Tissue image was constructed using mass signal 284 which was presented in high quantity throughout the tissue. Mirabegron was detected using mass signal 397 and overlayed onto the tissue image. The same slide used for DESI-Mass spec was subsequently stained with H&E.
# [5] = system: HUVECs; assay: Scratch migration assay in HUVECs with Mirabegron; type: cell-based, human; details: 0.85-850 nM, over 15 hours, between concentrations
# Method: as §1
# To first investigate whether the role that β3AR activation plays in endothelial cell migration was dose dependant, the inventors measured migration of HUVECs in media with multiple concentrations of Mirabegron (0.85, 8.5, 85 & 850 nM) using a scratch migration assay.
# [6] = system: HUVECs; assay: Cell migration by scratch assay in HUVECs (CL 316,243); type: cell-based, human; details: L-NAME 300 μmol/L with CL 316,243
# [7] = system: HUVECs; assay: Tubule formation in HUVECs on reduced growth factor extracellular matrix; type: cell-based, human; details: L-NAME 300 μmol/L with CL 316,243
# Method: (§2) Human umbilical vein endothelial cells (HUVECs; Lonza C2519AS, pooled source, Australia) were grown using standard cell culture conditions in endothelial cell growth medium (EGM Plus®, containing 2% fetal bovine serum, Lonza, Australia). All cells were regularly confirmed to be mycoplasma negative. Two different pooled source cell lines were used in experiments and all were used within passages 2-4. Human adult dermal microvascular endothelial cells were also obtained from Lonza (CC-2543, Lonza Australia) and cultured as above but using endothelial growth medium 2-MV bulletkit. Endothelial colony forming cells (ECFCs) were derived from the peripheral blood of participants in the BioHEART study. This registered study (ACTRN12618001322224) complies with the Declaration of Helsinki and the study protocol and design has been approved by the Northern Sydney Local Health District Human Research Ethics Committee (HREC/17/HAWKE/343). […]
# (§3) Once they were ˜70% confluent, cells were re-suspended in diluted EGM Plus® (1:3) and plated on reduced-growth factor extracellular matrix (15 mg/ml, Cultrex, Trevigen, USA) at a density of 1.5×10^4 cells/cm^2. […] Cells were incubated in an EVOS FL Auto Imaging system for 16 hours and tubule formation recorded every hour. Optimal tube formation occurred at the 8-hour timepoint; tubule number at this point was quantified manually using NIH Image J software. […]
# [8] = system: human adult dermal microvascular endothelial cells (MVEC); assay: Tubule formation in human adult dermal microvascular endothelial cells; type: cell-based; details: β3AR antagonist 1 μmol/L with CL 316,243 100 ng/ml
# Method: as §2, §3
# β3-AR, sequence (P13945 whole entry): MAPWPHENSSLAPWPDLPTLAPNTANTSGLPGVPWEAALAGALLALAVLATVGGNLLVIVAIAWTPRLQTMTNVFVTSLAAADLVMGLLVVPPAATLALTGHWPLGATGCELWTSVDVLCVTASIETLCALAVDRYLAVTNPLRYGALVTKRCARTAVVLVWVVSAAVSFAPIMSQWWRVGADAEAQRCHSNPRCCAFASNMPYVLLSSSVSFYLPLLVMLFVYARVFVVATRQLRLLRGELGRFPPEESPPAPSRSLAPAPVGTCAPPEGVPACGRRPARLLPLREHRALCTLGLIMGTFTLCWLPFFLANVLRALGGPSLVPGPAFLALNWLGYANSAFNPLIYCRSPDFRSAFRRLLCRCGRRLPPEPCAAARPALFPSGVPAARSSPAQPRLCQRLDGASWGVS
structure (smiles),measurement,setting,value
Cc1cc(OCC(=O)O)c(C)cc1CCN[C@@H](C)[C@H](O)c1ccc(O)cc1 [ritobegron],affinity and potency at β3-AR,[1],high affinity and potency
O=C(Nc1ccc(C[C@@H]2CC[C@H]([C@H](O)c3ccccc3)N2)cc1)[C@@H]1CCc2nccc(=O)n21 [vibegron],affinity and potency at β3-AR,[1],high affinity and potency
O=C(O)c1cccc(-c2cccc(NCCNC[C@H](O)c3cccc(Cl)c3)c2)c1 [solabegron],affinity and potency at β3-AR,[1],high affinity and potency
CC(C)NCC(O)COc1cccc2[nH]ccc12 (stereo not shown) [pindolol],agonist activity at β3-AR,[1],partial agonist activity
CC(C)(C)NCC(O)COc1cccc2[nH]c(=O)[nH]c12 (stereo not shown) [CGP12177A],agonist activity at β3-AR,[1],partial agonist activity
CC(C)(C)NCC(O)COc1cccc2c1CC(O)C(O)C2 (stereo not shown) [nadolol],affinity at β3-AR,[1]; β-AR antagonists,atypically low affinity
CC(C)(Cc1c[nH]c2ccccc12)NCC(O)COc1ccccc1C#N (stereo not shown) [bucindolol],agonist activity at β3-AR,[1],partial agonist activity
"Nc1nc(CC(=O)Nc2ccc(CCNC[C@H](O)c3ccccc3)cc2)cs1 [Mirabegron, 2-(2-Amino-1,3-thiazol-4-yl)-N-[4-(2-{[(2R)-2-hydroxy-2-phenylethyl]amino}ethyl)phenyl]acetamide]",wound healing (wound closure over time),"[2]; topical lipogel daily, 12 days, vs vehicle lipogel, p=0.009",Significant improvement
same,wound healing at day 2,"[2]; topical, day 2, n=14, p=0.0238",significant improvement
same,migration of diabetic HMVECs,[3],improved the migration; also recorded: seemed to improve the migration; also recorded: improves migration
same,affinity and potency at β3-AR,[1],high affinity and potency
same,absorption into skin tissue (DESI-Mass spec signal 397),[4],detected in the tissue; also recorded: deliver through to the dermis
same,migration of HUVECs,[5],No significant difference; also recorded: no impact
"COC(=O)[C@@H](N)CCCNC(=N)N[N+](=O)[O-] [L-NAME, Nω-nitro-L-arginine methyl ester]",effect on β3AR-stimulated cell migration rate in HUVECs,[6],abolished
same,effect on β3AR-stimulated tubule formation in HUVECs,[7],abolished
CCc1ccccc1OC[C@@H](O)CN[C@H]1CCCc2ccccc21.O=C(O)C(=O)O [SR 592230A],"effect on CL 316,243-induced tubule formation",[8],abolished
